The text below walks through data of patent US12552804B2, “Tricyclic heterocycles as FGFR inhibitors” (Incyte Corporation, priority 2019, dated 2026).

The test has as its target wild-type un-phosphorylated FGFR3 protein (Homo sapiens, UniProt P22607). In words: FGFR Enzymatic Assay (FRET detection of peptide phosphorylation). The class given is biochemical. Particulars: pre-incubated for 4 hours, read-out: FGFR3_Ki. Here is the method:
The inhibitor potency of the exemplified compounds was determined in an enzyme discontinuous assay that measures peptide phosphorylation using FRET measurements to detect product formation. Inhibitors were serially diluted in DMSO and a volume of 0.2 μL was transferred to the wells of a 384-well plate. A 5 μL/well volume of enzyme isoforms of FGFR (−1, −2, −3 wild-type and mutant isoforms, −4) including phosphorylated and un-phosphorylated proteins diluted in assay buffer (50 mM HEPES, 10 mM MgCl2, 1 mM EGTA, 0.01% Tween-20, 5 mM DTT, pH 7.5) was added to the plate and pre-incubated with inhibitor for 5 to 15 minutes at ambient temperature. Appropriate controls (enzyme blank and enzyme with no inhibitor) were included on the plate. […] The ATP Km values were pre-determined in a separate series of experiments. The reaction plate was incubated at 25° C. for 1 hr and the reactions were ended with the addition of 5 μL/well of quench solution (50 mM Tris, 150 mM NaCl, 0.5 mg/mL BSA, pH 7.8; 45 mM EDTA, 600 nM staurosporin, with Perkin Elmer Lance Reagents at 3.75 nM Eu-antibody PY20 and 180 nM APC-Streptavidin). The plate was allowed to equilibrate for ˜10 minutes at ambient temperature before scanning on a PheraStar plate reader (BMG Labtech) instrument.
Either GraphPad prism or XLfit was used to analyze the data. The IC50 values were derived by fitting the data to a four parameter logistic equation producing a sigmoidal dose-response curve with a variable Hill coefficient. Prism equation: Y=Bottom+(Top−Bottom)/(1+10^((LogIC50−X)*Hill slope)); XLfit equation: Y=(A+((B−A)/(1+((X/C)^D)))) where X is the logarithm of inhibitor concentration and Y is the response.
The data in Table 1 was measured in wild-type un-phosphorylated FGFR3 protein.

The structures appear in SMILES notation. Bounds are passed on as bounds.

wild-type un-phosphorylated FGFR3 protein, sequence (P22607 23-806): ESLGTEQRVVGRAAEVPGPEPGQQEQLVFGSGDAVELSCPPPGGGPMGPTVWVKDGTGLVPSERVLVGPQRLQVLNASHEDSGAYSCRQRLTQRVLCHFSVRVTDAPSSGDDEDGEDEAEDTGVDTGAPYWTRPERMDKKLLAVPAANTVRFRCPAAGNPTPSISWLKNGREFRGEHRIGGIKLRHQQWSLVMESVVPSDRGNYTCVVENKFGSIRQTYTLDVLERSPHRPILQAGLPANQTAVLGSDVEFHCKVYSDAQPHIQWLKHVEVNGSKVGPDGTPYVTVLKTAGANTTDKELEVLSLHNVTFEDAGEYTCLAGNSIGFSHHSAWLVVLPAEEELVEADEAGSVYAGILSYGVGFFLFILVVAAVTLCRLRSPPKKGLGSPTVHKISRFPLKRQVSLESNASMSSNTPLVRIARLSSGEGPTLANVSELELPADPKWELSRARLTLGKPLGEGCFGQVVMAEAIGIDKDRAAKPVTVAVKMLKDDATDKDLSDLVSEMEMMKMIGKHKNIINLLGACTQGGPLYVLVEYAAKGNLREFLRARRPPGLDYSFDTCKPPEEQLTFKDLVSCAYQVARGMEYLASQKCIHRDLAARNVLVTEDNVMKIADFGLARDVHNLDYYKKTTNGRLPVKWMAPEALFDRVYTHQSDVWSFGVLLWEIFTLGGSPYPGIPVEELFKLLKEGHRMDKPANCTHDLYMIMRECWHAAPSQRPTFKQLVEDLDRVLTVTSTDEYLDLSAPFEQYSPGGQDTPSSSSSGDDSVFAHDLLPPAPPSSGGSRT

With `CC(=O)N1CCC(n2cc(-c3cnc4ccn5cc(-c6c(Cl)cccc6Cl)nc5c4c3)cn2)C1` (stereo not drawn) [Example 15, 1-(3-(4-(2-(2,6-Dichlorophenyl)imidazo[2,1-f][1,6]naphthyridin-9-yl)-1H-pyrazol-1-yl)pyrrolidin-1-yl)ethan-1-one], the Ki was less than 10 nM. The value for `O=C(O)[C@H]1CC[C@H](n2cc(-c3cnc4ccn5c(C6CC6)c(-c6ccccc6Cl)nc5c4c3)cn2)CC1` [Example 16, (1R,4R)-4-(4-(2-(2-Chlorophenyl)-3-cyclopropylimidazo[2,1-f][1,6]naphthyridin-9-yl)-1H-pyrazol-1-yl)cyclohexane-1-carboxylic acid] was less than 10 nM; that for `CC(=O)N[C@H]1CC[C@H](n2cc(-c3cnc4ccn5c(C6CC6)c(-c6ccccc6Cl)nc5c4c3)cn2)CC1` [Example 17, N-((1R,4R)-4-(4-(2-(2-Chlorophenyl)-3-cyclopropylimidazo[2,1-f][1,6]naphthyridin-9-yl)-1H-pyrazol-1-yl)cyclohexyl)acetamide] was less than 10 nM. As to `Cc1cccc(F)c1-c1nc2c3nc(-c4cnn(C)c4)cnc3ccc2n1C` [Example 18, 2-(2-Fluoro-6-methylphenyl)-3-methyl-8-(1-methyl-1H-pyrazol-4-yl)-3H-imidazo[4,5-f]quinoxaline], the Ki lay within 10 to 100 nM. `COc1ccc(-c2nc3c4nc(-c5cnn(C)c5)cnc4ccc3n2C)c(Cl)c1` [Example 19, 2-(2-Chloro-4-methoxyphenyl)-3-methyl-8-(1-methyl-1H-pyrazol-4-yl)-3H-imidazo[4,5-f]quinoxaline]: the Ki lay in the range of 100 to 400 nM. The value for `Cc1ccoc1-c1nc2c3nc(-c4cnn(C)c4)cnc3ccc2n1C` [Example 20, 3-Methyl-8-(1-methyl-1H-pyrazol-4-yl)-2-(3-methylfuran-2-yl)-3H-imidazo[4,5-f]quinoxaline] was 100 to 400 nM. The value for `Cn1c(-c2c(F)cccc2Cl)nc2c3nc(-c4cnn(C5CC(O)C5)c4)cnc3ccc21` (stereo not drawn) [Example 21, 3-(4-(2-(2-Chloro-6-fluorophenyl)-3-methyl-3H-imidazo[4,5-f]quinoxalin-8-yl)-1H-pyrazol-1-yl)cyclobutan-1-ol] was less than 10 nM. The value for `CC(=O)N1CCN(c2ccc(-c3cnc4ccc5c(nc(-c6c(F)cccc6Cl)n5C)c4n3)cn2)CC1` [Example 22, 1-(4-(5-(2-(2-Chloro-6-fluorophenyl)-3-methyl-3H-imidazo[4,5-f]quinoxalin-8-yl)pyridin-2-yl)piperazin-1-yl)ethan-1-one] was less than 10 nM; that for `CN1CCC(c2nc3c4nc(-c5cnn(C)c5)cnc4ccc3n2C)CC1` [Example 23, 3-Methyl-8-(1-methyl-1H-pyrazol-4-yl)-2-(1-methylpiperidin-4-yl)-3H-imidazo[4,5-f]quinoxaline] was not below 400 nM; that for `Cn1cc(-c2cnc3ccc4c(nc(N5[C@@H]6CC[C@H]5C(=O)NC6)n4C)c3n2)cn1` [Example 24, (1S,5R)-8-(3-Methyl-8-(1-methyl-1H-pyrazol-4-yl)-3H-imidazo[4,5-f]quinoxalin-2-yl)-3,8-diazabicyclo[3.2.1]octan-2-one] was not below 400 nM. Turning to `Cc1c(-c2c(Cl)cccc2C(F)(F)F)nc2c3cc(-c4cnn([C@H]5CCN(C(=O)CO)C5)c4)cnc3ccn12` [Example 25, (S)-1-(3-(4-(2-(2-Chloro-6-(trifluoromethyl)phenyl)-3-methylimidazo[2,1-f][1,6]naphthyridin-9-yl)-1H-pyrazol-1-yl)pyrrolidin-1-yl)-2-hydroxyethan-1-one], the Ki was less than 10 nM. The value for `Cc1cccc(C)c1-c1nc2c3cc(-c4cnn([C@H]5CCN(C(=O)CO)C5)c4)cnc3ccn2c1C` [Example 26, (S)-1-(3-(4-(2-(2,6-Dimethylphenyl)-3-methylimidazo[2,1-f][1,6]naphthyridin-9-yl)-1H-pyrazol-1-yl)pyrrolidin-1-yl)-2-hydroxyethan-1-one] was less than 10 nM. The value for `Cc1c(-c2c(F)cccc2C#N)nc2c3cc(-c4cnn([C@H]5CCN(C(=O)CO)C5)c4)cnc3ccn12` [Example 27, (S)-3-Fluoro-2-(9-(1-(1-(2-hydroxyacetyl)pyrrolidin-3-yl)-1H-pyrazol-4-yl)-3-methylimidazo[2,1-f][1,6]naphthyridin-2-yl)benzonitrile] was 10 to 100 nM; that for `COc1cccc(F)c1-c1nc2c3cc(-c4cnn([C@H]5CCN(C(=O)CO)C5)c4)cnc3ccn2c1C` [Example 28, (S)-1-(3-(4-(2-(2-Fluoro-6-methoxyphenyl)-3-methylimidazo[2,1-f][1,6]naphthyridin-9-yl)-1H-pyrazol-1-yl)pyrrolidin-1-yl)-2-hydroxyethan-1-one] was 10 to 100 nM. Under `Cc1cccc(-c2nc3c4cc(-c5cnn(C)c5)cnc4ccn3c2C)c1C` [Example 29, 2-(2,3-Dimethylphenyl)-3-methyl-9-(1-methyl-1H-pyrazol-4-yl)imidazo[2,1-f][1,6]naphthyridine] stands 10 to 100 nM.

With `Cc1cc(CO)ccc1-c1nc2c3cc(-c4cnn(C)c4)cnc3ccn2c1C` [Example 30, (3-Methyl-4-(3-methyl-9-(1-methyl-1H-pyrazol-4-yl)imidazo[2,1-f][1,6]naphthyridin-2-yl)phenyl)methanol], the Ki fell in the range of 10 to 100 nM.

In the case of `Cc1c(-c2c(Cl)cccc2Cl)nc2c3cc(-c4cnn(C)c4)c(O)nc3ccn12` [Example 31, 2-(2,6-Dichlorophenyl)-3-methyl-9-(1-methyl-1H-pyrazol-4-yl)imidazo[2,1-f][1,6]naphthyridin-8-ol], the Ki fell in the range of 10 to 100 nM. The value for `Cc1c(-c2c(Cl)cccc2Cl)nc2c3c(O[C@H]4CCOC4)c(-c4cnn(C)c4)cnc3ccn12` [Example 32, (S)-2-(2,6-Dichlorophenyl)-3-methyl-9-(1-methyl-1H-pyrazol-4-yl)-10-((tetrahydrofuran-3-yl)oxy)imidazo[2,1-f][1,6]naphthyridine] was 100 to 400 nM.

Turning to `Cc1c(-c2c(Cl)cccc2Cl)nc2c3cc(-c4cnn(C)c4)c(N(C)C)nc3ccn12` [Example 33, 2-(2,6-Dichlorophenyl)-N,N,3-trimethyl-9-(1-methyl-1H-pyrazol-4-yl)imidazo[2,1-f][1,6]naphthyridin-8-amine], the Ki lay within 10 to 100 nM. The value for `C=CC(=O)Nc1ccc(Cl)c(-c2nc3c4cc(-c5cnn(C)c5)cnc4ccn3c2C)c1Cl` [Example 34, N-(2,4-Dichloro-3-(3-methyl-9-(1-methyl-1H-pyrazol-4-yl)imidazo[2,1-f][1,6]naphthyridin-2-yl)phenyl)acrylamide] was less than 10 nM. The value for `C=CC(=O)Nc1cccc(-c2nc3c4cc(-c5cnn(C)c5)cnc4ccn3c2C)c1` [Example 35, N-(3-(3-Methyl-9-(1-methyl-1H-pyrazol-4-yl)imidazo[2,1-f][1,6]naphthyridin-2-yl)phenyl)acrylamide] was 10 to 100 nM; that for `C=CC(=O)Nc1ccccc1-c1nc2c3cc(-c4cnn(C)c4)cnc3ccn2c1C` [Example 36, N-(2-(3-Methyl-9-(1-methyl-1H-pyrazol-4-yl)imidazo[2,1-f][1,6]naphthyridin-2-yl)phenyl)acrylamide] was 100 to 400 nM. Under `Cc1c(-c2c(Cl)cccc2Cl)nc2c3cc(-c4cnn(C5CN(C(=O)C6(N)CC6)C5)c4)cnc3ccn12` [Example 37, (1-Aminocyclopropyl)(3-(4-(2-(2,6-dichlorophenyl)-3-methylimidazo[2,1-f][1,6]naphthyridin-9-yl)-1H-pyrazol-1-yl)azetidin-1-yl)methanone] stands less than 10 nM; under `Cc1c(-c2c(Cl)cccc2Cl)nc2c3cc(-c4cnn(C5CN(C(=O)Cn6ccnc6)C5)c4)cnc3ccn12` [Example 38, 1-(3-(4-(2-(2,6-Dichlorophenyl)-3-methylimidazo[2,1-f][1,6]naphthyridin-9-yl)-1H-pyrazol-1-yl)azetidin-1-yl)-2-(1H-imidazol-1-yl)ethan-1-one], less than 10 nM. For `Cc1c(-c2c(Cl)cccc2Cl)nc2c3cc(-c4cnn(C5CN(C(=O)c6cocn6)C5)c4)cnc3ccn12` [Example 39, (3-(4-(2-(2,6-Dichlorophenyl)-3-methylimidazo[2,1-f][1,6]naphthyridin-9-yl)-1H-pyrazol-1-yl)azetidin-1-yl)(oxazol-4-yl)methanone], the Ki was less than 10 nM.

Take `Cc1c(-c2c(Cl)cccc2Cl)nc2c3cc(-c4cnn(C5CN(C(=O)C6(N)CCOCC6)C5)c4)cnc3ccn12` [Example 40, (4-Aminotetrahydro-2H-pyran-4-yl)(3-(4-(2-(2,6-dichlorophenyl)-3-methylimidazo[2,1-f][1,6]naphthyridin-9-yl)-1H-pyrazol-1-yl)azetidin-1-yl)methanone]: the Ki was less than 10 nM. The value for `Cc1c(-c2c(Cl)cccc2Cl)nc2c3cc(-c4cnn(C5CN(C(=O)CC#N)C5)c4)cnc3ccn12` [Example 41, 3-(3-(4-(2-(2,6-Dichlorophenyl)-3-methylimidazo[2,1-f][1,6]naphthyridin-9-yl)-1H-pyrazol-1-yl)azetidin-1-yl)-3-oxopropanenitrile] was less than 10 nM.
